Common to all, as to experiment: cell-based
For experiment [1], the target named is hNav1.7 (Homo sapiens, UniProt Q15858). The format is cell-based. The note with it: Table 26; IonWorks Quattro, use; […]; read-out: IWQ Use Nav1.7. On the technique in general: Patch clamp records ionic current or voltage across a cell membrane.
In experiment [2] the target is hNav1.5 (Homo sapiens, UniProt Q14524). The note with it: for pIC50: Table 26, IonWorks Quattro, use, read-out: IWQ Use Nav1.5; for IC50: IWQ Use Nav1.5 (μM).
Experiment [3] addresses hNav1.3 (Homo sapiens, UniProt Q9NY46). Conditions: Table 26; IonWorks Quattro, use; […]; read-out: IWQ Use Nav1.3.

pIC50: −log10 of the molar value. Where two headings read alike, the source gives them in different places. Positions of bridges follow the written chain, without caps; N, C: chain ends. Non-standard residues stand in square brackets, D forms with d. Residues, ends and D or L forms follow the SMILES beside them. 2Pal = N[C@@H](Cc1ccccn1)C(=O)O

hNav1.3, sequence (Q9NY46 whole entry, looked up): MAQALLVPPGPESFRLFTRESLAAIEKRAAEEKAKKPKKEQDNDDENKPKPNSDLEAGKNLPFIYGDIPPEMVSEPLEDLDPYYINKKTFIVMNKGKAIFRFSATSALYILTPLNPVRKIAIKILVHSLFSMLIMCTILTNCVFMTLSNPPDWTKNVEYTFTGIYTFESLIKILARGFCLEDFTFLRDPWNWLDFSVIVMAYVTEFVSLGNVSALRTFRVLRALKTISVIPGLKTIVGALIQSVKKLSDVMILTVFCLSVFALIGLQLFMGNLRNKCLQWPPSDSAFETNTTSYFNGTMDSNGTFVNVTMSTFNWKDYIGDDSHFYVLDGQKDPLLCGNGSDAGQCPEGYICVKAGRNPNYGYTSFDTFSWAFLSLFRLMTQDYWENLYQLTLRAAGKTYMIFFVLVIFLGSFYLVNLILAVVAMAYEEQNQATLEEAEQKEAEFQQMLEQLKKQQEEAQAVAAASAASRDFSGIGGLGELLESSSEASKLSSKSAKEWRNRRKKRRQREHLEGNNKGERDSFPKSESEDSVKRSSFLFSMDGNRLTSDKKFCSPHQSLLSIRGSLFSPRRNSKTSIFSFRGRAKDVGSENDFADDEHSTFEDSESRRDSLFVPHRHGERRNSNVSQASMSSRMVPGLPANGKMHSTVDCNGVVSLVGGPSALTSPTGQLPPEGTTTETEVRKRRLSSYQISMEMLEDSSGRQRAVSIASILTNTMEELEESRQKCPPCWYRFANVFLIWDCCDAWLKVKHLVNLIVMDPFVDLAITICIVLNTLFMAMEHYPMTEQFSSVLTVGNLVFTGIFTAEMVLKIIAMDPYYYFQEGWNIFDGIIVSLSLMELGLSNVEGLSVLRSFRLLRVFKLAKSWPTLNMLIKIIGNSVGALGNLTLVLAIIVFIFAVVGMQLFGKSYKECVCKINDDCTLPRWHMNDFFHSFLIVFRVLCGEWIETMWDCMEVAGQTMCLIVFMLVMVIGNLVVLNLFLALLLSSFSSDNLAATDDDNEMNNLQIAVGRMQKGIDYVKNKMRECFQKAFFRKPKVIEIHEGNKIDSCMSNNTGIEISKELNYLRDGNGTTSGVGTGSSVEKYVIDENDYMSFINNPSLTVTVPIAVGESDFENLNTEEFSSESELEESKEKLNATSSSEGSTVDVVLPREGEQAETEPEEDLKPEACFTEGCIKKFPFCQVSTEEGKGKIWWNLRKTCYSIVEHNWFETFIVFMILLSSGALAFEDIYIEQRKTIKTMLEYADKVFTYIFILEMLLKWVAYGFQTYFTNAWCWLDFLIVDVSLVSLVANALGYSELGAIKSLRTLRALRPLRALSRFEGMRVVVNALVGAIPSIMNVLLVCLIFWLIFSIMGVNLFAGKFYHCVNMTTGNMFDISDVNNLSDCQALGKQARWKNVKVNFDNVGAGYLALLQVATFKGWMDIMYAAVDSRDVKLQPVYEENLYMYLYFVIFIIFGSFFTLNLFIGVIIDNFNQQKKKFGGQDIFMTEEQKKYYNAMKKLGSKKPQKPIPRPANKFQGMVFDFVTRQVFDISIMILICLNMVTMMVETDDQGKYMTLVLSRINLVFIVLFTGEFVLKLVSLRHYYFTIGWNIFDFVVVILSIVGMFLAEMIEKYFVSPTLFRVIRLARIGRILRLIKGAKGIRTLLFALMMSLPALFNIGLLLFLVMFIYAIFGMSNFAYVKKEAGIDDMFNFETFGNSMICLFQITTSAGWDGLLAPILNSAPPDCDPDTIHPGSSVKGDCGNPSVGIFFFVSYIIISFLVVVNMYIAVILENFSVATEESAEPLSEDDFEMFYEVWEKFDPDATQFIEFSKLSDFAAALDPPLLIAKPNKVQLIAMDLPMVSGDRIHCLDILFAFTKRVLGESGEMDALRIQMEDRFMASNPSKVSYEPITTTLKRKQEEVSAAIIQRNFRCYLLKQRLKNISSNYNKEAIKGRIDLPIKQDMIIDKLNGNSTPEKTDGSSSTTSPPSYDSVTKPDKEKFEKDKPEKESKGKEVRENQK
hNav1.7, sequence (Q15858 whole entry, looked up): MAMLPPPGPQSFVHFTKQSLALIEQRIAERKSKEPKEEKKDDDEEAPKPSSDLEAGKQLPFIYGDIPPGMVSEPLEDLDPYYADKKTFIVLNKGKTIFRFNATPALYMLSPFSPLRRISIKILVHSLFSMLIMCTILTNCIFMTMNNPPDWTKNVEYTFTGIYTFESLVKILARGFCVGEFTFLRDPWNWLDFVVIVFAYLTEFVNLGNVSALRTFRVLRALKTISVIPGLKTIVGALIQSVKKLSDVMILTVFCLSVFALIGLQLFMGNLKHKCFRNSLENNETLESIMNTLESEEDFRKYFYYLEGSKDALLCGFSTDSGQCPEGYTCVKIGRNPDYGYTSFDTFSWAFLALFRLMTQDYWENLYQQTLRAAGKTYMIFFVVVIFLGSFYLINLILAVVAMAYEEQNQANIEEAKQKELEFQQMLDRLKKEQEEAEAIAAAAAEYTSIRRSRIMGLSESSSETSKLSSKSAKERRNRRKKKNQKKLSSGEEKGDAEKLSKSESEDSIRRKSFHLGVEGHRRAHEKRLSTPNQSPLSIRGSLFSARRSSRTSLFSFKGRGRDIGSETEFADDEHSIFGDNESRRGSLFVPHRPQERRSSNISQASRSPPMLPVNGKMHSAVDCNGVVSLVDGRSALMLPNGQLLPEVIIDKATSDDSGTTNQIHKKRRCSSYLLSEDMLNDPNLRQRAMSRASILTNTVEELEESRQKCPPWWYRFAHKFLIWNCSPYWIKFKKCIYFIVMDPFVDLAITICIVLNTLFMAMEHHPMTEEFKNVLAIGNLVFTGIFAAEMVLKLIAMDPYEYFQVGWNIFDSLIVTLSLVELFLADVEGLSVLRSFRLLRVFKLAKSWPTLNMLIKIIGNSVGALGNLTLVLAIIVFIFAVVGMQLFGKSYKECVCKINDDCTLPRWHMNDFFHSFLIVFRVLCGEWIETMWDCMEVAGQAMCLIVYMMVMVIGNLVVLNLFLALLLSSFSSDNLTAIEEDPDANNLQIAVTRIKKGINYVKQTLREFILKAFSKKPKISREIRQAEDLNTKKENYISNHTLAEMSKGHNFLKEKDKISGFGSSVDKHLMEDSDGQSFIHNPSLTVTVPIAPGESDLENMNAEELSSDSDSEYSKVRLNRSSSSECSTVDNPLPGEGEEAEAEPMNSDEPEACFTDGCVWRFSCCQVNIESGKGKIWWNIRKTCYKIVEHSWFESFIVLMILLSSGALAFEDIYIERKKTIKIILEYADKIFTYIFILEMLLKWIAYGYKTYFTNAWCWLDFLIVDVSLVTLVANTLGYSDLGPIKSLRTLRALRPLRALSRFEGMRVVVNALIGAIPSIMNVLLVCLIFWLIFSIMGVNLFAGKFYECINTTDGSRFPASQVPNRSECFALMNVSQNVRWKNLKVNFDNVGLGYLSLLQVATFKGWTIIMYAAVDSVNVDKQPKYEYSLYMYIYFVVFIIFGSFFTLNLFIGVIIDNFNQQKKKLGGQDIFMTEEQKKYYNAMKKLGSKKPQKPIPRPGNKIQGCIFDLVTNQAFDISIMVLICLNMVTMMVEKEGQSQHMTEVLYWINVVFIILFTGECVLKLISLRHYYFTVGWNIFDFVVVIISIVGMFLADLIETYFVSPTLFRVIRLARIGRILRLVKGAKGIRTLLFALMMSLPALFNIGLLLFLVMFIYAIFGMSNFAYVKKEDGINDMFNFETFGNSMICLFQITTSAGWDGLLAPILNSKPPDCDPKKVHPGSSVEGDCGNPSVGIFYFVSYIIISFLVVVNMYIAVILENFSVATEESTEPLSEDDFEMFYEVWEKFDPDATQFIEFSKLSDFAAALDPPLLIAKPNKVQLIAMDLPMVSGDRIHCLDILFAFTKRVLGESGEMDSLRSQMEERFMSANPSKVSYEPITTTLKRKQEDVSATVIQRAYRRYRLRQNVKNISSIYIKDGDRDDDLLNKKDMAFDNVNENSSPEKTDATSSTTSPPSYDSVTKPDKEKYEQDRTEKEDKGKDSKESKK

On to `CC[C@H](C)[C@@H]1NC(=O)[C@@H]2CSSC[C@@H]3NC(=O)[C@H](C(C)C)NC(=O)[C@H](CC(C)C)NC(=O)[C@H](CC(N)=O)NC(=O)[C@@H]4CCCN4C(=O)[C@H](CCCNC(=N)N)NC(=O)[C@H](CSSC[C@H](NC(=O)[C@@H](N)CC(=O)O)C(=O)N[C@@H](CC(C)C)C(=O)NCC(=O)N[C@@H](Cc4ccccc4)C(=O)N[C@@H](CCSC)C(=O)N[C@@H](CCCNC(=N)N)C(=O)N[C@@H](CCCCN)C(=O)N2)NC(=O)[C@H](CSSC[C@@H](C(=O)N[C@@H](CCCCN)C(=O)N[C@@H](Cc2ccc(O)cc2)C(=O)N[C@@H](CC(=O)O)C(=O)N[C@@H](Cc2ccccc2)C(N)=O)NC(=O)[C@H](Cc2c[nH]c4ccccc24)NC(=O)[C@H](CCCCN)NC(=O)[C@H](Cc2c[nH]cn2)NC(=O)[C@H]([C@@H](C)O)NC(=O)[C@H](CCCNC(=N)N)NC(=O)[C@H](CO)NC3=O)NC(=O)[C@H](CCCCN)NC(=O)[C@H](CC(=O)O)NC(=O)[C@H](CC(N)=O)NC(=O)[C@H](CC(=O)O)NC(=O)[C@@H]2CCCN2C1=O` [compound 395] (H-DCLGFMRKCIPDNDKCCRPNLVCSRTHKWCKYDF-NH2; disulfide 2-17, 9-23, 16-30), for which the pIC50 in experiment [1] is 6.11; in experiment [2], 5.06; in experiment [3] it was 6.77.
Take `CC[C@H](C)[C@@H]1NC(=O)[C@@H]2CSSC[C@@H]3NC(=O)[C@H](C(C)C)NC(=O)[C@H](CC(C)C)NC(=O)[C@H](CC(N)=O)NC(=O)[C@@H]4CCCN4C(=O)[C@H](CCCNC(=N)N)NC(=O)[C@H](CSSC[C@H](NC(=O)[C@@H](N)CC(=O)O)C(=O)N[C@@H](CC(C)C)C(=O)NCC(=O)N[C@@H](Cc4ccccc4)C(=O)N[C@@H](CCSC)C(=O)N[C@@H](CCCNC(=N)N)C(=O)N[C@@H](CCCCN)C(=O)N2)NC(=O)[C@H](CSSC[C@@H](C(=O)N[C@@H](CCCCN)C(=O)N[C@@H](Cc2ccc(O)cc2)C(=O)N[C@H](C(=O)N[C@@H](Cc2ccccc2)C(N)=O)[C@@H](C)O)NC(=O)[C@H](Cc2c[nH]c4ccccc24)NC(=O)[C@H](CCCCN)NC(=O)[C@H](Cc2c[nH]cn2)NC(=O)[C@H]([C@@H](C)O)NC(=O)[C@H](CCCNC(=N)N)NC(=O)[C@H](CO)NC3=O)NC(=O)[C@H](CCCCN)NC(=O)[C@H](CC(=O)O)NC(=O)[C@H](CC(N)=O)NC(=O)[C@H](CC(=O)O)NC(=O)[C@@H]2CCCN2C1=O` [compound 396] (H-DCLGFMRKCIPDNDKCCRPNLVCSRTHKWCKYTF-NH2; disulfide 2-17, 9-23, 16-30): the pIC50 in experiment [1] was 7.70; in experiment [2], 5.42; in experiment [3] it was 7.40.
For `CC[C@H](C)[C@@H]1NC(=O)[C@@H]2CSSC[C@@H]3NC(=O)[C@H](C(C)C)NC(=O)[C@H](CC(C)C)NC(=O)[C@H](CC(N)=O)NC(=O)[C@@H]4CCCN4C(=O)[C@H](CCCNC(=N)N)NC(=O)[C@H](CSSC[C@H](NC(=O)[C@@H](N)CC(=O)O)C(=O)N[C@@H](CC(C)C)C(=O)NCC(=O)N[C@@H](Cc4ccccc4)C(=O)N[C@@H](CCSC)C(=O)N[C@@H](CCCNC(=N)N)C(=O)N[C@@H](CCCCN)C(=O)N2)NC(=O)[C@H](CSSC[C@@H](C(=O)N[C@@H](CCCCN)C(=O)N[C@@H](Cc2ccc(O)cc2)C(=O)N[C@@H](CO)C(=O)N[C@@H](Cc2ccccc2)C(N)=O)NC(=O)[C@H](Cc2c[nH]c4ccccc24)NC(=O)[C@H](CCCCN)NC(=O)[C@H](Cc2c[nH]cn2)NC(=O)[C@H]([C@@H](C)O)NC(=O)[C@H](CCCNC(=N)N)NC(=O)[C@H](CO)NC3=O)NC(=O)[C@H](CCCCN)NC(=O)[C@H](CC(=O)O)NC(=O)[C@H](CC(N)=O)NC(=O)[C@H](CC(=O)O)NC(=O)[C@@H]2CCCN2C1=O` [compound 397] (H-DCLGFMRKCIPDNDKCCRPNLVCSRTHKWCKYSF-NH2; disulfide 2-17, 9-23, 16-30) the same measures were 7.40, 5.20 and 7.22.
For `CC[C@H](C)[C@@H]1NC(=O)[C@@H]2CSSC[C@@H]3NC(=O)[C@H](C(C)C)NC(=O)[C@H](CC(C)C)NC(=O)[C@H](CC(N)=O)NC(=O)[C@@H]4CCCN4C(=O)[C@H](CCCNC(=N)N)NC(=O)[C@H](CSSC[C@H](NC(=O)[C@@H](N)CC(=O)O)C(=O)N[C@@H](CC(C)C)C(=O)NCC(=O)N[C@@H](Cc4ccccc4)C(=O)N[C@@H](CCSC)C(=O)N[C@@H](CCCNC(=N)N)C(=O)N[C@@H](CCCCN)C(=O)N2)NC(=O)[C@H](CSSC[C@@H](C(=O)N[C@@H](CCCCN)C(=O)N[C@@H](Cc2ccc(O)cc2)C(=O)N2CCC[C@H]2C(=O)N[C@@H](Cc2ccccc2)C(N)=O)NC(=O)[C@H](Cc2c[nH]c4ccccc24)NC(=O)[C@H](CCCCN)NC(=O)[C@H](Cc2c[nH]cn2)NC(=O)[C@H]([C@@H](C)O)NC(=O)[C@H](CCCNC(=N)N)NC(=O)[C@H](CO)NC3=O)NC(=O)[C@H](CCCCN)NC(=O)[C@H](CC(=O)O)NC(=O)[C@H](CC(N)=O)NC(=O)[C@H](CC(=O)O)NC(=O)[C@@H]2CCCN2C1=O` [compound 398] (H-DCLGFMRKCIPDNDKCCRPNLVCSRTHKWCKYPF-NH2; disulfide 2-17, 9-23, 16-30) the same measures were 5.28, 5.16 and 5.48.
Consider `CC[C@H](C)[C@@H]1NC(=O)[C@@H]2CSSC[C@@H]3NC(=O)[C@H](C(C)C)NC(=O)[C@H](CC(C)C)NC(=O)[C@H](CC(N)=O)NC(=O)[C@@H]4CCCN4C(=O)[C@H](CCCNC(=N)N)NC(=O)[C@H](CSSC[C@H](NC(=O)[C@@H](N)CC(=O)O)C(=O)N[C@@H](CC(C)C)C(=O)NCC(=O)N[C@@H](Cc4ccccc4)C(=O)N[C@@H](CCSC)C(=O)N[C@@H](CCCNC(=N)N)C(=O)N[C@@H](CCCCN)C(=O)N2)NC(=O)[C@H](CSSC[C@@H](C(=O)N[C@@H](CCCCN)C(=O)N[C@@H](Cc2ccc(O)cc2)C(=O)N[C@@H](Cc2ccc(O)cc2)C(=O)N[C@@H](Cc2ccccc2)C(N)=O)NC(=O)[C@H](Cc2c[nH]c4ccccc24)NC(=O)[C@H](CCCCN)NC(=O)[C@H](Cc2c[nH]cn2)NC(=O)[C@H]([C@@H](C)O)NC(=O)[C@H](CCCNC(=N)N)NC(=O)[C@H](CO)NC3=O)NC(=O)[C@H](CCCCN)NC(=O)[C@H](CC(=O)O)NC(=O)[C@H](CC(N)=O)NC(=O)[C@H](CC(=O)O)NC(=O)[C@@H]2CCCN2C1=O` [compound 399] (H-DCLGFMRKCIPDNDKCCRPNLVCSRTHKWCKYYF-NH2; disulfide 2-17, 9-23, 16-30), for which the pIC50 in experiment [1] was 7.15; in experiment [2], under 5.30; in experiment [3] it was 7.52.
As to `CC[C@H](C)[C@@H]1NC(=O)[C@@H]2CSSC[C@@H]3NC(=O)[C@H](C(C)C)NC(=O)[C@H](CC(C)C)NC(=O)[C@H](CC(N)=O)NC(=O)[C@@H]4CCCN4C(=O)[C@H](CCCNC(=N)N)NC(=O)[C@H](CSSC[C@H](NC(=O)[C@@H](N)CC(=O)O)C(=O)N[C@@H](CC(C)C)C(=O)NCC(=O)N[C@@H](Cc4ccccc4)C(=O)N[C@@H](CCSC)C(=O)N[C@@H](CCCNC(=N)N)C(=O)N[C@@H](CCCCN)C(=O)N2)NC(=O)[C@H](CSSC[C@@H](C(=O)N[C@@H](CCCCN)C(=O)N[C@@H](Cc2ccc(O)cc2)C(=O)N[C@@H](CC(C)C)C(=O)N[C@@H](Cc2ccccc2)C(N)=O)NC(=O)[C@H](Cc2c[nH]c4ccccc24)NC(=O)[C@H](CCCCN)NC(=O)[C@H](Cc2c[nH]cn2)NC(=O)[C@H]([C@@H](C)O)NC(=O)[C@H](CCCNC(=N)N)NC(=O)[C@H](CO)NC3=O)NC(=O)[C@H](CCCCN)NC(=O)[C@H](CC(=O)O)NC(=O)[C@H](CC(N)=O)NC(=O)[C@H](CC(=O)O)NC(=O)[C@@H]2CCCN2C1=O` [compound 400] (H-DCLGFMRKCIPDNDKCCRPNLVCSRTHKWCKYLF-NH2; disulfide 2-17, 9-23, 16-30), the pIC50 was 6.89 in experiment [1] and 7.15 in experiment [3]. The compound further showed an IC50 in experiment [2] of over 5 µM.
`CC[C@H](C)[C@@H]1NC(=O)[C@@H]2CSSC[C@@H]3NC(=O)[C@H](C(C)C)NC(=O)[C@H](CC(C)C)NC(=O)[C@H](CC(N)=O)NC(=O)[C@@H]4CCCN4C(=O)[C@H](CCCNC(=N)N)NC(=O)[C@H](CSSC[C@H](NC(=O)[C@@H](N)CC(=O)O)C(=O)N[C@@H](CC(C)C)C(=O)NCC(=O)N[C@@H](Cc4ccccc4)C(=O)N[C@@H](CCSC)C(=O)N[C@@H](CCCNC(=N)N)C(=O)N[C@@H](CCCCN)C(=O)N2)NC(=O)[C@H](CSSC[C@@H](C(=O)N[C@@H](CCCCN)C(=O)N[C@@H](Cc2ccc(O)cc2)C(=O)NCC(=O)N[C@@H](Cc2ccccc2)C(N)=O)NC(=O)[C@H](Cc2c[nH]c4ccccc24)NC(=O)[C@H](CCCCN)NC(=O)[C@H](Cc2c[nH]cn2)NC(=O)[C@H]([C@@H](C)O)NC(=O)[C@H](CCCNC(=N)N)NC(=O)[C@H](CO)NC3=O)NC(=O)[C@H](CCCCN)NC(=O)[C@H](CC(=O)O)NC(=O)[C@H](CC(N)=O)NC(=O)[C@H](CC(=O)O)NC(=O)[C@@H]2CCCN2C1=O` [compound 401] (H-DCLGFMRKCIPDNDKCCRPNLVCSRTHKWCKYGF-NH2; disulfide 2-17, 9-23, 16-30): the pIC50 in experiment [1] is 6.54; in experiment [3], 7.40. This compound also showed a half-inhibitory concentration (IC50) in experiment [2] of over 5 µM.
As for `CC[C@H](C)[C@@H]1NC(=O)[C@@H]2CSSC[C@@H]3NC(=O)[C@H](C(C)C)NC(=O)[C@H](CC(C)C)NC(=O)[C@H](CC(N)=O)NC(=O)[C@@H]4CCCN4C(=O)[C@H](CCCNC(=N)N)NC(=O)[C@H](CSSC[C@H](NC(=O)[C@@H](N)CC(=O)O)C(=O)N[C@@H](CC(C)C)C(=O)NCC(=O)N[C@@H](Cc4ccccc4)C(=O)N[C@@H](CCSC)C(=O)N[C@@H](CCCNC(=N)N)C(=O)N[C@@H](CCCCN)C(=O)N2)NC(=O)[C@H](CSSC[C@@H](C(=O)N[C@@H](CCCCN)C(=O)N[C@@H](Cc2ccc(O)cc2)C(=O)N[C@@H](Cc2ccccn2)C(=O)N[C@@H](Cc2ccccc2)C(N)=O)NC(=O)[C@H](Cc2c[nH]c4ccccc24)NC(=O)[C@H](CCCCN)NC(=O)[C@H](Cc2c[nH]cn2)NC(=O)[C@H]([C@@H](C)O)NC(=O)[C@H](CCCNC(=N)N)NC(=O)[C@H](CO)NC3=O)NC(=O)[C@H](CCCCN)NC(=O)[C@H](CC(=O)O)NC(=O)[C@H](CC(N)=O)NC(=O)[C@H](CC(=O)O)NC(=O)[C@@H]2CCCN2C1=O` [compound 402] (H-DCLGFMRKCIPDNDKCCRPNLVCSRTHKWCKY[2Pal]F-NH2; disulfide 2-17, 9-23, 16-30), the pIC50 in experiment [1] is 6.92; in experiment [2] it was 5.08; in experiment [3], 6.80.

Broadly, the IC50 is the point on the concentration scale where inhibition reaches its midpoint.

Values taken from US9340590B2 (priority 2011, dated 2016).
